From patent publication EP0067084B1, “Eye-lotion compositions for the treatment of conjunctivitis and keratitis” (Laboratoires P.O.S. Société Anonyme dite:, priority 1981, dated 1982)

How the values were obtained:
chien = test: Chronic toxicity in the dog, oral, 13 weeks; format: in vivo; settings: 35 mg/Kg/jour, 13 semaines
lapin = test: Chronic toxicity in the rabbit, ocular instillation, 13 weeks; format: in vivo; settings: instillation oculaire, 4 doses par jour, solution à 0,9 g (pour 100 ml), 13 semaines
[1] = Solubility (description of the product); format: physicochemical

solubility in water ([1]; eau): insoluble dans l'eau
solubility in organic solvents ([1]; méthanol, chloroforme, acétone, benzène): soluble dans divers solvants organique
SMILES: CCCCCCCCCCCCOCCCN [Lopa, amino-1 dodécyloxy-3 propane]
toxicité locale et/ou systématique (chien): aucune toxicité locale et/ou systématique
toxicité locale et/ou systématique (lapin): aucune toxicité locale et/ou systématique
